# According to patent publication US20180141939A1, “SOLID FORMS OF A BET INHIBITOR” (Gilead Sciences, Inc., priority 2016, published 2018):
# Counter-ions that a name gives are not always drawn.
# Key:
# Format in all cases: physicochemical
# [1] = Dynamic vapor sorption (DVS) moisture uptake; conditions: for moisture uptake (DVS): at about 90% RH; for hygroscopicity (DVS analysis): classification in words
# [2] = Relative stability of solid forms (competitive slurries); conditions: for thermodynamic / physical stability of the solid form: statement in words; for relative stability in competitive slurries with Compound I phosphate Form I: MeOH/EtOAc solvent system
# [3] = Kinetic aqueous solubility / solubility in water of salt and co-crystal forms
# [4] = Aqueous vapor stress (high humidity stress, about 85% RH), deliquescence; conditions: for deliquescence when stressed at about 85% RH: about 24 h where stated; for deliquescence at elevated RH: elevated relative humidity
# Procedure: Crystalline forms of Compound I were analyzed by at least one of X-ray powder diffraction (XRPD), differential scanning calorimetry (DSC), thermogravimetric analysis (TGA), dynamic vapor sorption (DVS), solution proton nuclear magnetic resonance spectroscopy (^1H NMR), KF titration, and aqueous vapor stress experiments. XRPD patterns of Compound I were collected with a PANalytical X'Pert PRO MPD diffractometer using mostly the following experimental setting: 45 kV, 40 mA, Kα1=1.5406 Å, scan range 2-40° 2θ, step size 0.0167° 2θ. The DSC analysis was conducted on a TA Instruments Q2000 differential scanning calorimeter using 10° C./min heating rate over the 20° C. to 250° C. temperature range or above. The TGA analysis was conducted on a TA Instruments 2950 thermogravimetric analyzer using a 10° C./min heating rate over the 20° C. to 350° C. temperature range. ^1H NMR spectra were acquired with an Agilent DD2-400 spectrometer using DMSO-d6 with tetramethylsilane (TMS). KF analysis was performed using a Mettler Toledo DL39 Karl Fischer titrator with a Stromboli drying oven attachment set at about 110° C. Aqueous vapor stress experiments were conducted by placing a sample in a 85% RH jar for a specified duration.
kinetic aqueous solubility [3],deliquescence when stressed at about 85% RH [4],SMILES,other results
,,"Cc1noc(C)c1-c1cc(C(O)(c2ccccn2)c2ccccn2)c2nc(C3CC3)[nH]c2c1 [Compound I Form I, (2-cyclopropyl-6-(3,5-dimethylisoxazol-4-yl)-1H-benzo[d]imidazol-4-yl)di(pyridin-2-yl)methanol]",moisture uptake (DVS) [1]: about 0.4%; hygroscopicity (DVS analysis) [1]: slightly hygroscopic; thermodynamic / physical stability of the solid form [2]: most thermodynamically stable form of Compound I
,,"Cc1noc(C)c1-c1cc(C(O)(c2ccccn2)c2ccccn2)c2nc(C3CC3)[nH]c2c1 [Compound I Form II, (2-cyclopropyl-6-(3,5-dimethylisoxazol-4-yl)-1H-benzo[d]imidazol-4-yl)di(pyridin-2-yl)methanol]",thermodynamic / physical stability of the solid form [2]: unstable mono-IPA solvate that may convert to Compound I Form I at ambient conditions
about 6 mg/mL,evidence of deliquescence,"Cc1noc(C)c1-c1cc(C(O)(c2ccccn2)c2ccccn2)c2nc(C3CC3)[nH]c2c1 [Compound I HCl Material B, (2-cyclopropyl-6-(3,5-dimethylisoxazol-4-yl)-1H-benzo[d]imidazol-4-yl)di(pyridin-2-yl)methanol]",
about 1 mg/mL,does not show any signs of deliquescence,"Cc1noc(C)c1-c1cc(C(O)(c2ccccn2)c2ccccn2)c2nc(C3CC3)[nH]c2c1 [Compound I besylate Material A, (2-cyclopropyl-6-(3,5-dimethylisoxazol-4-yl)-1H-benzo[d]imidazol-4-yl)di(pyridin-2-yl)methanol]",
about 1 mg/mL,does not show any signs of deliquescence,"Cc1noc(C)c1-c1cc(C(O)(c2ccccn2)c2ccccn2)c2nc(C3CC3)[nH]c2c1 [Compound I edisylate Material A, (2-cyclopropyl-6-(3,5-dimethylisoxazol-4-yl)-1H-benzo[d]imidazol-4-yl)di(pyridin-2-yl)methanol]",
,does not deliquesce,"Cc1noc(C)c1-c1cc(C(O)(c2ccccn2)c2ccccn2)c2nc(C3CC3)[nH]c2c1 [Compound I gentisate Material A, (2-cyclopropyl-6-(3,5-dimethylisoxazol-4-yl)-1H-benzo[d]imidazol-4-yl)di(pyridin-2-yl)methanol]",
about 5 mg/mL,,"Cc1noc(C)c1-c1cc(C(O)(c2ccccn2)c2ccccn2)c2nc(C3CC3)[nH]c2c1 [Compound I mesylate Material A, (2-cyclopropyl-6-(3,5-dimethylisoxazol-4-yl)-1H-benzo[d]imidazol-4-yl)di(pyridin-2-yl)methanol]",deliquescence at elevated RH [4]: shows evidence of deliquescence
about 13 mg/mL,,"Cc1noc(C)c1-c1cc(C(O)(c2ccccn2)c2ccccn2)c2nc(C3CC3)[nH]c2c1 [Compound I mesylate Material C, (2-cyclopropyl-6-(3,5-dimethylisoxazol-4-yl)-1H-benzo[d]imidazol-4-yl)di(pyridin-2-yl)methanol]",deliquescence at elevated RH [4]: a tendency to deliquesce
,,"Cc1noc(C)c1-c1cc(C(O)(c2ccccn2)c2ccccn2)c2nc(C3CC3)[nH]c2c1 [Compound I mesylate Material G, (2-cyclopropyl-6-(3,5-dimethylisoxazol-4-yl)-1H-benzo[d]imidazol-4-yl)di(pyridin-2-yl)methanol]",moisture uptake (DVS) [1]: about 25%; hygroscopicity (DVS analysis) [1]: very hygroscopic
,does not deliquesce,"Cc1noc(C)c1-c1cc(C(O)(c2ccccn2)c2ccccn2)c2nc(C3CC3)[nH]c2c1 [Compound I napsylate Material A, (2-cyclopropyl-6-(3,5-dimethylisoxazol-4-yl)-1H-benzo[d]imidazol-4-yl)di(pyridin-2-yl)methanol]",
,,"Cc1noc(C)c1-c1cc(C(O)(c2ccccn2)c2ccccn2)c2nc(C3CC3)[nH]c2c1 [Compound I phosphate Form III, (2-cyclopropyl-6-(3,5-dimethylisoxazol-4-yl)-1H-benzo[d]imidazol-4-yl)di(pyridin-2-yl)methanol]",solubility ([3]; water): ~6 mg/mL; moisture uptake (DVS) [1]: about 0.7%; hygroscopicity (DVS analysis) [1]: slightly hygroscopic
,,"Cc1noc(C)c1-c1cc(C(O)(c2ccccn2)c2ccccn2)c2nc(C3CC3)[nH]c2c1 [Compound I phosphate Form IV, (2-cyclopropyl-6-(3,5-dimethylisoxazol-4-yl)-1H-benzo[d]imidazol-4-yl)di(pyridin-2-yl)methanol]",relative stability in competitive slurries with Compound I phosphate Form I [2]: complete conversion of Compound I phosphate Form IV to Compound I phosphate Form I
,,"Cc1noc(C)c1-c1cc(C(O)(c2ccccn2)c2ccccn2)c2nc(C3CC3)[nH]c2c1 [Compound I phosphate Form V, (2-cyclopropyl-6-(3,5-dimethylisoxazol-4-yl)-1H-benzo[d]imidazol-4-yl)di(pyridin-2-yl)methanol]",relative stability in competitive slurries with Compound I phosphate Form I [2]: complete conversion of Compound I phosphate Form V to Compound I phosphate Form I
about 4 mg/mL,no evidence of deliquescence,"Cc1noc(C)c1-c1cc(C(O)(c2ccccn2)c2ccccn2)c2nc(C3CC3)[nH]c2c1 [Compound I sulfate Material A, (2-cyclopropyl-6-(3,5-dimethylisoxazol-4-yl)-1H-benzo[d]imidazol-4-yl)di(pyridin-2-yl)methanol]",
about 4 mg/mL,no evidence of deliquescence,"Cc1noc(C)c1-c1cc(C(O)(c2ccccn2)c2ccccn2)c2nc(C3CC3)[nH]c2c1 [Compound I sulfate Material B, (2-cyclopropyl-6-(3,5-dimethylisoxazol-4-yl)-1H-benzo[d]imidazol-4-yl)di(pyridin-2-yl)methanol]",
about 15 mg/mL,does not deliquesce,"Cc1noc(C)c1-c1cc(C(O)(c2ccccn2)c2ccccn2)c2nc(C3CC3)[nH]c2c1 [Compound I tartrate Material A, (2-cyclopropyl-6-(3,5-dimethylisoxazol-4-yl)-1H-benzo[d]imidazol-4-yl)di(pyridin-2-yl)methanol]",
,does not deliquesce,"Cc1noc(C)c1-c1cc(C(O)(c2ccccn2)c2ccccn2)c2nc(C3CC3)[nH]c2c1 [Compound I xinafoate Form I, (2-cyclopropyl-6-(3,5-dimethylisoxazol-4-yl)-1H-benzo[d]imidazol-4-yl)di(pyridin-2-yl)methanol]",
about 4 mg/mL,,"Cc1noc(C)c1-c1cc(C(O)(c2ccccn2)c2ccccn2)c2nc(C3CC3)[nH]c2c1 [mixture of Compound I sulfate Material A and Compound I sulf] [(2-cyclopropyl-6-(3,5-dimethylisoxazol-4-yl)-1H-benzo[d]imidazol-4-yl)di(pyridin-2-yl)methanol]",

SMILES,kinetic aqueous solubility [3],deliquescence when stressed at about 85% RH [4],other results
"Cc1noc(C)c1-c1cc(C(O)(c2ccccn2)c2ccccn2)c2nc(C3CC3)[nH]c2c1 [Compound I tosylate Form I, (2-cyclopropyl-6-(3,5-dimethylisoxazol-4-yl)-1H-benzo[d]imidazol-4-yl)di(pyridin-2-yl)methanol]",about 3 mg/mL,does not show any evidence of deliquescence,
